Test systems include 786-0; COLO 205; HCC 2998; HCT-116; HCT-15; HOP-92; K562; NCI-H23; NCI-H522; OVCAR-8; SF-539; SK-MEL-5; SN12C; U-251; UO-31.
What all share (assay): NCI anticancer screen, dose series, 48 h

The values below come from ChEMBL document CHEMBL1201862, “PubChem BioAssay data set” (2004).

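Test compounds were applied to cells in 96-well plates for 48 hours at 5 doses. At the GI50, growth is halved.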 Calls of active or inactive are those of the source. Rule as the data show it: active = GI50 up to about 1.1 µM and inactive = higher.

In the case of `CC(=O)OC1(C#N)CC2OC1C1NC21` (stereo not given), the GI50 in the assay on 786-0 is > 100 µM (inactive); in the assay on COLO 205, > 100 µM (inactive); with HCC 2998 it was > 100 µM (inactive); in the assay on HCT-116 it was > 100 µM (inactive); in the assay on HCT-15, over 100 µM; in the assay on HOP-92, > 100 µM (inactive). Moreover, the GI50 with K562, in the assay with NCI-H23, in the assay with NCI-H522, in the assay on OVCAR-8, in the assay on SF-539 and in the assay on SK-MEL-5 was > 100 µM (inactive) in each case. The GI50 in the assay on SN12C, in the assay with U-251 and with UO-31 was > 100 µM (inactive) in each case.

On to `N#CC(C(=N/O)/C(=N/O)C(C#N)c1ccc(Cl)cc1)c1ccc(Cl)cc1` (stereo not given), for which the GI50 with 786-0 is > 100 µM (inactive); with COLO 205, 64.6 µM (inactive); in the assay with HCC 2998 it was 84.1 µM (inactive); in the assay on HCT-116, > 100 µM (inactive); with HCT-15, 55.2 µM; with HOP-92, > 100 µM (inactive). For the same compound, the GI50 is 92.5 µM (inactive) with NCI-H23; 40 µM (inactive) in the assay on OVCAR-8; > 100 µM (inactive) with SF-539; > 100 µM (inactive) with SN12C; > 100 µM (inactive) with U-251; > 100 µM (inactive) in the assay with UO-31.

Consider `Cc1ccccc1N(CCC#N)C1=NN(C(=O)CC(=O)Nc2ccc(Cl)cc2)C(c2ccccc2)C1` (stereo not given), for which the GI50 is > 100 µM (inactive) in the assay on 786-0; > 100 µM (inactive) in the assay on COLO 205; > 100 µM (inactive) in the assay on HCC 2998; > 100 µM (inactive) in the assay on HCT-116; over 100 µM in the assay on HCT-15; > 100 µM (inactive) in the assay on HOP-92. For the same compound, the GI50 with K562, with NCI-H23, in the assay with NCI-H522, in the assay on OVCAR-8, in the assay on SF-539 and in the assay with SK-MEL-5 was > 100 µM (inactive) in each case. For the same compound, the GI50 with SN12C, in the assay with U-251 and in the assay on UO-31 was > 100 µM (inactive) each time.

Regarding `O=C(/C=C/c1cccc([N+](=O)[O-])c1)c1cccnc1`, the GI50 in the assay on 786-0 was 16.5 µM (inactive); in the assay on COLO 205 it was 35.6 µM (inactive); in the assay on HCC 2998 it was 36.5 µM (inactive); in the assay with HCT-116, 16.7 µM (inactive); in the assay on HCT-15, 43.5 µM; in the assay on HOP-92 it was 74 µM (inactive). For the same compound, the GI50 with K562 was 29.4 µM (inactive); in the assay with NCI-H23, 17.7 µM (inactive); with NCI-H522, 7.98 µM (inactive); with OVCAR-8, 34.6 µM (inactive); in the assay on SF-539, 21.1 µM (inactive); with SK-MEL-5 it was 14.7 µM (inactive). The GI50 with SN12C was 26.5 µM (inactive); in the assay with U-251, 20.6 µM (inactive); in the assay with UO-31, > 45.1 µM (inactive).

As to `Cc1c(C(=O)Nc2ccc(Cl)cc2)nc(N)nc1-c1cccc(Cl)c1`, the GI50 is > 100 µM (inactive) with 786-0; 77.3 µM (inactive) with COLO 205; 61.9 µM (inactive) in the assay on HCC 2998; 57.3 µM (inactive) in the assay with HCT-116; 28.4 µM (inactive) with HOP-92; 38.5 µM (inactive) with K562. The GI50 in the assay on NCI-H23, in the assay on OVCAR-8, in the assay on SF-539, in the assay with SK-MEL-5, in the assay with SN12C and in the assay on U-251 was > 100 µM (inactive) in each case. Further, the GI50 with UO-31 is > 100 µM (inactive).

As to `O=c1cccccc1NCCCCNc1cccccc1=O`, the GI50 in the assay with 786-0 is > 100 µM (inactive); with COLO 205, > 100 µM (inactive); with HCC 2998, 85.3 µM (inactive); with HCT-116 it was > 100 µM (inactive); with HCT-15, 84.7 µM; in the assay on K562, > 100 µM (inactive). The GI50 was 67.8 µM (inactive) with NCI-H23; 83.8 µM (inactive) with NCI-H522; > 100 µM (inactive) with OVCAR-8; 30 µM (inactive) in the assay with SK-MEL-5; > 100 µM (inactive) with SN12C; > 100 µM (inactive) with U-251. In the assay on UO-31, the GI50 was 42 µM (inactive).

`O=C1NC(=O)C2C1N(Cc1ccccc1)C(=O)N2Cc1ccccc1` (stereo not given): the GI50 with 786-0 is > 100 µM (inactive); in the assay on COLO 205 it was > 100 µM (inactive); in the assay on HCC 2998, > 100 µM (inactive); in the assay with HCT-116, > 100 µM (inactive); in the assay on HCT-15 it was over 100 µM; with HOP-92, > 100 µM (inactive). For the same compound, the GI50 in the assay with K562, in the assay with NCI-H23, in the assay on NCI-H522, in the assay with SF-539, with SK-MEL-5 and with SN12C was > 100 µM (inactive) throughout. The GI50 in the assay with U-251 and in the assay on UO-31 was > 100 µM (inactive) throughout.

With `COc1cc2c(c(OC)c1OC)-c1ccc(SC)c(=O)cc1[C@@H](NC(=O)c1ccc([N+](=O)[O-])cc1)CC2`, the GI50 was 0.00528 µM (active) in the assay on 786-0; < 0.0025 µM (active) in the assay on COLO 205; 0.00588 µM (active) with HCC 2998; < 0.0025 µM (active) with HCT-116; 0.00843 µM in the assay on HCT-15; < 0.0025 µM (active) in the assay with HOP-92. Moreover, the GI50 in the assay on K562 is < 0.0025 µM (active); with NCI-H23, < 0.01 µM (active); in the assay on SF-539 it was < 0.0025 µM (active); in the assay on SK-MEL-5, < 0.0025 µM (active); in the assay with SN12C, 0.00957 µM (active); in the assay with U-251, 0.025 µM (active). Also, in the assay with UO-31, the GI50 is 0.00579 µM (active).

Consider `COC1=CC(=O)C2C(C1=O)[C@@H]1c3ccccc3OC[C@H]21` (stereo not given in full), for which the GI50 was > 100 µM (inactive) in the assay on 786-0; > 100 µM (inactive) in the assay on COLO 205; > 100 µM (inactive) in the assay with HCC 2998; > 100 µM (inactive) with HCT-116; over 10 µM in the assay on HCT-15; > 100 µM (inactive) in the assay with HOP-92. Moreover, the GI50 with K562 was > 100 µM (inactive); in the assay on NCI-H23, > 100 µM (inactive); with NCI-H522 it was 49.9 µM (inactive); in the assay on OVCAR-8, > 100 µM (inactive); in the assay on SF-539, > 100 µM (inactive); with SK-MEL-5, > 100 µM (inactive). For the same compound, the GI50 in the assay with U-251 and with UO-31 was > 100 µM (inactive) in each case.

For the compound `Cn1cnc([N+](=O)[O-])c1Sc1nc2cccnc2s1`, the GI50 was 14.5 µM (inactive) in the assay on 786-0; 10.3 µM (inactive) in the assay with COLO 205; 16.7 µM (inactive) in the assay on HCC 2998; 16 µM (inactive) with HCT-116; 11.6 µM in the assay on HCT-15; 18.5 µM (inactive) in the assay on HOP-92. For the same compound, the GI50 in the assay on NCI-H23 is > 10 µM (inactive); in the assay on OVCAR-8, 16.1 µM (inactive); with SF-539, 19.8 µM (inactive); with SK-MEL-5 it was 19.7 µM (inactive); in the assay with SN12C it was 17.8 µM (inactive); in the assay with U-251, 24 µM (inactive). Besides, the GI50 in the assay on UO-31 was 17.1 µM (inactive).

`CC(=O)C1(O)CCC2(O)C3(O)CC=C4CC(O)CCC4(C)C3CC(OC(=O)c3ccc(O)cc3)C12C.COC1CC(OC2C(C)OC(OC3C(C)OC(OC4CCC5(C)C(=CCC6(O)C5CC(OC(=O)c5ccc(O)cc5)C5(C)C(O)(C(C)=O)CCC65O)C4)CC3OC)CC2OC)OC(C)C1O` (stereo not given): the GI50 with 786-0 was 23.7 µM (inactive); in the assay with COLO 205, 26.9 µM (inactive); with HCC 2998, 26.9 µM (inactive); in the assay with HCT-116 it was 10 µM (inactive); in the assay on HCT-15, 33.6 µM; in the assay on HOP-92, 21.1 µM (inactive). For the same compound, the GI50 with NCI-H23 was 28.9 µM (inactive); in the assay with OVCAR-8, 29.9 µM (inactive); with SF-539 it was 24.5 µM (inactive); in the assay on SN12C it was 31.3 µM (inactive); with U-251, 22.5 µM (inactive); with UO-31, 18.3 µM (inactive).

For `CCc1ccccc1NC(=O)C1=C(C)NC(C)=C(C(=O)Nc2ccccc2CC)C1c1ccc2c(c1)OCO2`, the GI50 was 30.4 µM (inactive) in the assay on 786-0; 29 µM (inactive) with COLO 205; 15.1 µM (inactive) with HCC 2998; 13.6 µM (inactive) in the assay with HOP-92; 26.5 µM (inactive) in the assay on K562; 31.5 µM (inactive) with NCI-H23. The GI50 in the assay on NCI-H522 was 24.1 µM (inactive); in the assay with OVCAR-8, 33.7 µM (inactive); with SF-539, 16.8 µM (inactive); in the assay on SK-MEL-5, 23.2 µM (inactive); with SN12C, 41.2 µM (inactive); in the assay with U-251, 26.9 µM (inactive). Besides, the GI50 with UO-31 was 18.5 µM (inactive).

As for `N=C(N)NS(=O)(=O)c1ccc(NCc2c3ccccc3[n+]([O-])c3ccccc23)cc1`, the GI50 in the assay with 786-0 is 19.7 µM (inactive); in the assay on COLO 205, 68.5 µM (inactive); with HCC 2998, 13.4 µM (inactive); in the assay on HCT-116, 8.11 µM (inactive); in the assay on HCT-15, 18.4 µM; with HOP-92, 0.394 µM (active). For the same compound, the GI50 with K562 is 25.7 µM (inactive); with NCI-H23 it was 21.8 µM (inactive); with NCI-H522 it was 29.9 µM (inactive); with OVCAR-8 it was 28.5 µM (inactive); in the assay on SK-MEL-5 it was 14 µM (inactive); with SN12C it was 15 µM (inactive). Besides, the GI50 was 16.6 µM (inactive) in the assay on U-251 and 15.2 µM (inactive) in the assay on UO-31.

Consider `O=C(CNc1nncs1)NO`, for which the GI50 in the assay on 786-0 is > 100 µM (inactive); with COLO 205, > 100 µM (inactive); in the assay on HCC 2998 it was > 100 µM (inactive); with HCT-116 it was > 100 µM (inactive); in the assay on HCT-15, over 100 µM; with HOP-92 it was 38.2 µM (inactive). Also, the GI50 with K562, in the assay with NCI-H23, in the assay with NCI-H522, in the assay on OVCAR-8, in the assay with SF-539 and in the assay on SN12C was > 100 µM (inactive) each time. Also, the GI50 in the assay with U-251 and in the assay on UO-31 was > 100 µM (inactive) in each case.
